Data reported in ChEMBL document CHEMBL4483862, “Open-source discovery of chemical leads for next-generation chemoprotective antimalarials” (2018).

Tested on: Plasmodium berghei
Assay: Luciferase/luciferin-expressing antifolate-resistant parasites were used to infect a culture of HepG2 cells that were pre-incubated with compounds. Infected hepatocytes emit light due to the luciferase reaction. Assay results are presented as the percent inhibition of light emission compared to control. […]
Assay type: functional
Conditions: sporozoite; for IC90: read-out: LUCIFERASE INFECTION ASSAY - IC90

SMILES: CCNc1nc(CN2CCCCC2)nc2scc(-c3ccccc3)c12
- IC50 (PBLUC_HILL_SLOPE 4.71, PBLUC_R_SQUARED 0.781, read-out: LUCIFERASE INFECTION ASSAY - IC50): 3.21 µM
- IC90: 5.12 µM

SMILES: CNC(=O)CNc1nc(-c2ccccn2)nc2scc(-c3ccccc3)c12
- IC50 (PBLUC_HILL_SLOPE 4.47, PBLUC_R_SQUARED 0.505, read-out: LUCIFERASE INFECTION ASSAY - IC50): 4.55 µM
- IC90: 7.43 µM

SMILES: OC(c1cc(F)c(F)c(F)c1)c1nnc(Nc2cc(C(F)(F)F)ccc2F)s1 (stereo unspecified)
- IC50 (PBLUC_HILL_SLOPE 4.45, PBLUC_R_SQUARED 0.324, read-out: LUCIFERASE INFECTION ASSAY - IC50): 4.58 µM
- IC90: 7.5 µM

SMILES: Cc1cccc(C)c1NC(=O)N1[C@@H]2CC[C@@H](C2)[C@H]1c1nc2cccc(OCc3ccc(F)cc3)c2[nH]1
- IC50 (PBLUC_HILL_SLOPE 4.64, PBLUC_R_SQUARED 0.011, read-out: LUCIFERASE INFECTION ASSAY - IC50): > 10 µM
- IC90: > 10 µM

SMILES: CC(C)(C)c1ccc(-c2cnc3cnc(-c4ccc(C(=O)N5CCOCC5)cc4)cn23)cc1
- IC50 (PBLUC_HILL_SLOPE 4.5, PBLUC_R_SQUARED 0.623, read-out: LUCIFERASE INFECTION ASSAY - IC50): 4.7 µM
- IC90: > 7.49 µM

SMILES: COc1ccc(-c2cnc3ccc(N[C@H](CO)C(C)C)nn23)cn1
- IC50 (PBLUC_HILL_SLOPE 4.47, PBLUC_R_SQUARED 0.471, read-out: LUCIFERASE INFECTION ASSAY - IC50): 2.69 µM
- IC90: 4.4 µM

SMILES: Cc1[nH]c2c(F)cc(F)cc2c(=O)c1I
- IC50 (PBLUC_HILL_SLOPE 4.58, PBLUC_R_SQUARED 0.0894, read-out: LUCIFERASE INFECTION ASSAY - IC50): 5.86 µM
- IC90: 9.47 µM

SMILES: CCCn1c(NC(=O)c2cccnc2OCC)nc2ccccc21
- IC50 (PBLUC_HILL_SLOPE 4.52, PBLUC_R_SQUARED 0.28, read-out: LUCIFERASE INFECTION ASSAY - IC50): 7.59 µM
- IC90: > 10 µM

SMILES: Cc1ccc(C(C)C)c(OCC(=O)N2CCC(c3nc4ccccc4[nH]3)CC2)c1
- IC50 (PBLUC_HILL_SLOPE 4.62, PBLUC_R_SQUARED 0.766, read-out: LUCIFERASE INFECTION ASSAY - IC50): 4.48 µM
- IC90: 7.21 µM

SMILES: CC(C)c1ccc2c(ccc[n+]2C)c1
- IC50 (PBLUC_HILL_SLOPE 4.53, PBLUC_R_SQUARED 0.451, read-out: LUCIFERASE INFECTION ASSAY - IC50): 8.36 µM
- IC90: > 10.5 µM

SMILES: COc1ccc(COC(=O)Cc2c(C)[nH]c(-c3ccccn3)nc2=O)cc1OC
- IC50 (PBLUC_HILL_SLOPE 4.54, PBLUC_R_SQUARED 0.664, read-out: LUCIFERASE INFECTION ASSAY - IC50): 5.01 µM
- IC90: 8.13 µM

SMILES: CCC(Sc1ncnc2sc(C)c(C)c12)C(=O)Nc1cc(C)on1 (stereo unspecified)
- IC50 (PBLUC_HILL_SLOPE 4.56, PBLUC_R_SQUARED 0.361, read-out: LUCIFERASE INFECTION ASSAY - IC50): 9.74 µM
- IC90: > 10 µM

SMILES: CNc1nc2cnc(Nc3cccc(C(C)C)c3)cc2n1CC1CC1
- IC50 (PBLUC_HILL_SLOPE 4.69, PBLUC_R_SQUARED 0.216, read-out: LUCIFERASE INFECTION ASSAY - IC50): 6.21 µM
- IC90: 9.92 µM

SMILES: Cc1nn(-c2cccc(C(F)(F)F)c2)c2c1C=Nc1cc(S(=O)(=O)N3CCOCC3)ccc1O2
- IC50 (PBLUC_HILL_SLOPE 4.52, PBLUC_R_SQUARED 0.617, read-out: LUCIFERASE INFECTION ASSAY - IC50): 8.73 µM
- IC90: > 10 µM

SMILES: CCOc1cc(/C=C/C(=O)c2ccc3c(c2)OCCO3)cc(Br)c1OCC(=O)N(C)C
- IC50 (PBLUC_HILL_SLOPE 4.45, PBLUC_R_SQUARED 0.571, read-out: LUCIFERASE INFECTION ASSAY - IC50): 6.04 µM
- IC90: 9.9 µM

SMILES: Cc1[nH]nc2ccnc(-c3cccc(Oc4ccccc4)c3)c12
- IC50 (PBLUC_HILL_SLOPE 4.64, PBLUC_R_SQUARED 0.273, read-out: LUCIFERASE INFECTION ASSAY - IC50): 3.44 µM
- IC90: 5.52 µM

SMILES: CCCCNC(=O)c1c(NCCC)sc(C(=O)c2ccc(OC)cc2)c1N
- IC50 (PBLUC_HILL_SLOPE 4.7, PBLUC_R_SQUARED 0.148, read-out: LUCIFERASE INFECTION ASSAY - IC50): 8.99 µM
- IC90: > 10 µM

SMILES: CC(=O)NCCC(=O)N(c1ccc(Oc2ccccc2)cc1)c1nc2ccccc2s1
- IC50 (PBLUC_HILL_SLOPE 4.74, PBLUC_R_SQUARED 0.599, read-out: LUCIFERASE INFECTION ASSAY - IC50): 6.78 µM
- IC90: > 10 µM

SMILES: Cc1ccc(Nc2nc(CSc3nc4ccccc4c(=O)n3CCCCCCC(C)C)cs2)cc1
- IC50 (PBLUC_HILL_SLOPE 4.69, PBLUC_R_SQUARED 0.352, read-out: LUCIFERASE INFECTION ASSAY - IC50): 7.63 µM
- IC90: > 10 µM

SMILES: COc1ccc(OC)c(CN2CCN(c3nc(-c4cccnc4)nc4sc(C)c(C)c34)CC2)c1
- IC50 (PBLUC_HILL_SLOPE 4.71, PBLUC_R_SQUARED 0.569, read-out: LUCIFERASE INFECTION ASSAY - IC50): 4.29 µM
- IC90: 6.84 µM

SMILES: CCOc1cc(C2NCC(c3ccccc3)c3c2[nH]c2ccccc32)ccc1OCC(C)C (stereo unspecified)
- IC50 (PBLUC_HILL_SLOPE 4.52, PBLUC_R_SQUARED 0.531, read-out: LUCIFERASE INFECTION ASSAY - IC50): 6.16 µM
- IC90: > 10 µM

SMILES: O=C(CSCc1cn(-c2ccccc2)nc1-c1ccccc1)NC1CCCC1
- IC50 (PBLUC_HILL_SLOPE 4.68, PBLUC_R_SQUARED 0.205, read-out: LUCIFERASE INFECTION ASSAY - IC50): 6.9 µM
- IC90: > 10 µM

SMILES: Cc1c(C(=O)OCc2coc(-c3cccs3)n2)sc2nc3n(c(=O)c12)CCC3
- IC50 (PBLUC_HILL_SLOPE 4.64, PBLUC_R_SQUARED 0.43, read-out: LUCIFERASE INFECTION ASSAY - IC50): 4.75 µM
- IC90: 7.63 µM

SMILES: CC/N=c1\scc(-c2cc(C)c(C)cc2C)n1/N=C/c1c[nH]c2ccccc12
- IC50 (PBLUC_HILL_SLOPE 4.53, PBLUC_R_SQUARED 0.847, read-out: LUCIFERASE INFECTION ASSAY - IC50): 3.77 µM
- IC90: 6.13 µM

SMILES: COc1ccc(Nc2nccc3[nH]c(-c4cccc(F)c4)cc23)cc1O
- IC50 (PBLUC_HILL_SLOPE 4.51, PBLUC_R_SQUARED 0.135, read-out: LUCIFERASE INFECTION ASSAY - IC50): 9.39 µM
- IC90: > 10 µM

SMILES: Nc1cccc(-c2cn3c(-c4ccc5c(c4)OCO5)cnc3cn2)c1
- IC50 (PBLUC_HILL_SLOPE 4.69, PBLUC_R_SQUARED 0.303, read-out: LUCIFERASE INFECTION ASSAY - IC50): 5.08 µM
- IC90: 8.12 µM

SMILES: CC(C)c1cccc(-c2ccc3nnc(-c4cccc(Cl)c4)n3c2)c1
- IC50 (PBLUC_HILL_SLOPE 4.48, PBLUC_R_SQUARED 0.207, read-out: LUCIFERASE INFECTION ASSAY - IC50): 6.48 µM
- IC90: > 10 µM

SMILES: CC(C)(C)c1ccc(C2SCC(=O)N2c2ccc(Cl)cc2)cc1 (stereo unspecified)
- IC50 (PBLUC_HILL_SLOPE 4.61, PBLUC_R_SQUARED 0.0595, read-out: LUCIFERASE INFECTION ASSAY - IC50): 4.13 µM
- IC90: 6.66 µM

SMILES: CCN1C(=O)N(Cc2cccc(OC)c2)C(=O)C12CCN(Cc1cn(C)c3ccccc13)CC2
- IC50 (PBLUC_HILL_SLOPE 4.47, PBLUC_R_SQUARED 0.0939, read-out: LUCIFERASE INFECTION ASSAY - IC50): 6.08 µM
- IC90: > 7.16 µM

SMILES: COCOc1ccc(-c2cc(-c3ccc(OC)c(OC)c3)cnc2N)cc1
- IC50 (PBLUC_HILL_SLOPE 4.72, PBLUC_R_SQUARED 0.371, read-out: LUCIFERASE INFECTION ASSAY - IC50): 7.27 µM
- IC90: > 9.01 µM

SMILES: CC(=O)Nc1cccc(-c2cn3c(-c4ccc(CO)cc4)cnc3cn2)c1
- IC50 (PBLUC_HILL_SLOPE 4.55, PBLUC_R_SQUARED 0.47, read-out: LUCIFERASE INFECTION ASSAY - IC50): 6.15 µM
- IC90: > 9.21 µM

SMILES: Cc1onc(-c2c(F)cccc2Cl)c1C(=O)ON=C1C2CC3CC(C2)CC1C3
- IC50 (PBLUC_HILL_SLOPE 4.6, PBLUC_R_SQUARED 0.401, read-out: LUCIFERASE INFECTION ASSAY - IC50): 3 µM
- IC90: 4.84 µM

SMILES: Cc1nc2ccccc2n1CCC(=O)Nc1cccc(Cl)c1
- IC50 (PBLUC_HILL_SLOPE 4.62, PBLUC_R_SQUARED 0.253, read-out: LUCIFERASE INFECTION ASSAY - IC50): 5.29 µM
- IC90: 8.51 µM
